Consider 6 cell lines from the supplement of paper PMC10307832.

What all share (experiment): relative viability (nuclei count vs DMSO), 5 days (fraction); higher = more cells survive
Compound in assay [1]: CCn1c(-c2nonc2N)nc2cnc(Oc3cccc(NC(=O)c4ccc(OCCN5CCOCC5)cc4)c3)cc21 + Cc1nc(Nc2ncc(C(=O)Nc3c(C)cccc3Cl)s2)cc(N2CCN(CCO)CC2)n1 [Dasatinib] (partner 0.075 µM)
In a few lines: (§1)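 Each reported value is a median over duplicate plates. It expresses relative viability: treated-well nuclei count divided by vehicle-well nuclei count. Lung cancer cell lines in 1536-well plates were dosed by pin tool a day after seeding, alone with one drug or with a fixed anchor-drug dose plus five library-drug doses (not always all listed) in √10 steps, and nuclei were counted after 5 days.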

Compound in assay [2]: CCC1=CN=CN=C1N2CCN(CC2)CC3=NC4=C(N3)C=C(C=C4)C(F)(F)F + N=C(N)NC(=N)NCCc1ccccc1 [Phenformin] (partner 250 µM)
In a few lines:
as §1

Compound in the assay “Mirin + Bortezomib”: N=C1NC(=O)/C(=C/c2ccc(O)cc2)S1 [Mirin] + CC(C)C[C@H](NC(=O)[C@H](Cc1ccccc1)NC(=O)c1cnccn1)B(O)O [Bortezomib] (partner 0.002 µM)
The procedure, abridged:
as §1

Compound in assay [3]: CCC1=CN=CN=C1N2CCN(CC2)CC3=NC4=C(N3)C=C(C=C4)C(F)(F)F + C[C@@H](Oc1cc(-c2cnn(C3CCNCC3)c2)cnc1N)c1c(Cl)ccc(F)c1Cl [Crizotinib] (partner 1 µM)
In a few lines: as §1

Turning to NCI-H3122, the relative viability stood at 0.955 in assay [1] (first compound 0.04 µM); 0.82 in assay [1] (first compound 0.1265 µM); 0.651 in assay [1] (first compound 0.4 µM); 0.554 in assay [1] (first compound 1.265 µM); 0.525 in assay [1] (first compound 4 µM); 0.372 in assay [2] (first compound 0.04 µM). Besides, the relative viability in assay [2] (first compound 0.1265 µM) turned out to be 0.362; in assay [2] (first compound 0.4 µM), 0.318; in assay [2] (first compound 1.265 µM) it was 0.359; in assay [2] (first compound 4 µM) it was 0.342; in the assay with Mirin + Bortezomib (first compound 0.25 µM) it was 1.06; in the assay with Mirin + Bortezomib (first compound 0.7906 µM) it was 0.985. For the same cell line, the relative viability was 0.986 with Mirin + Bortezomib (first compound 2.5 µM); 1.1 with Mirin + Bortezomib (first compound 7.906 µM); 1.1 with Mirin + Bortezomib (first compound 25 µM); 0.262 in assay [3] (first compound 0.04 µM); 0.264 in assay [3] (first compound 0.1265 µM); 0.318 in assay [3] (first compound 0.4 µM). The values for the relative viability in assay [3] (first compound 1.265 µM) and in assay [3] (first compound 4 µM) were 0.531 and 0.469, respectively.
PC-3 [JPC-3]: the relative viability in assay [1] (first compound 0.04 µM) came out at 0.981; in assay [1] (first compound 0.1265 µM) it was 0.902; in assay [1] (first compound 0.4 µM) it was 0.605; in assay [1] (first compound 1.265 µM), 0.728; in assay [1] (first compound 4 µM), 0.648; in assay [2] (first compound 0.04 µM) it was 0.456. In addition, the relative viability in assay [2] (first compound 0.1265 µM) was 0.456; in assay [2] (first compound 0.4 µM) it was 0.457; in assay [2] (first compound 1.265 µM) it was 0.505; in assay [2] (first compound 4 µM) it was 0.479; with Mirin + Bortezomib (first compound 0.25 µM), 0.768; with Mirin + Bortezomib (first compound 0.7906 µM), 0.889. The relative viability with Mirin + Bortezomib (first compound 2.5 µM) amounted to 0.841; with Mirin + Bortezomib (first compound 7.906 µM), 0.941; with Mirin + Bortezomib (first compound 25 µM) it was 0.967; in assay [3] (first compound 0.04 µM), 0.989; in assay [3] (first compound 0.1265 µM), 0.919; in assay [3] (first compound 0.4 µM) it was 0.948. In addition, the relative viability in assay [3] (first compound 1.265 µM) was 0.92; in assay [3] (first compound 4 µM), 0.934.
Turning to PC-14, the relative viability in assay [1] (first compound 0.04 µM) is 0.221; in assay [1] (first compound 0.1265 µM), 0.173; in assay [1] (first compound 0.4 µM), 0.174; in assay [1] (first compound 1.265 µM), 0.158; in assay [1] (first compound 4 µM) it was 0.115; in assay [2] (first compound 0.04 µM) it was 0.463. The relative viability in assay [2] (first compound 0.1265 µM) came out at 0.472; in assay [2] (first compound 0.4 µM) it was 0.561; in assay [2] (first compound 1.265 µM), 0.669; in assay [2] (first compound 4 µM) it was 0.567; in the assay with Mirin + Bortezomib (first compound 0.25 µM), 0.895; with Mirin + Bortezomib (first compound 0.7906 µM), 0.852. In addition, the relative viability came to 0.894 with Mirin + Bortezomib (first compound 2.5 µM); 1.06 with Mirin + Bortezomib (first compound 7.906 µM); 1.04 with Mirin + Bortezomib (first compound 25 µM); 1.02 in assay [3] (first compound 0.04 µM); 0.781 in assay [3] (first compound 0.1265 µM); 0.976 in assay [3] (first compound 0.4 µM). The values for the relative viability in assay [3] (first compound 1.265 µM) and in assay [3] (first compound 4 µM) were 0.915 and 1.06, respectively.
Turning to RERF-LC-KJ, the relative viability came out at 0.88 in assay [1] (first compound 0.04 µM); 0.746 in assay [1] (first compound 0.1265 µM); 0.462 in assay [1] (first compound 0.4 µM); 0.43 in assay [1] (first compound 1.265 µM); 0.347 in assay [1] (first compound 4 µM); 0.407 in assay [2] (first compound 0.04 µM). In addition, the relative viability stood at 0.382 in assay [2] (first compound 0.1265 µM); 0.467 in assay [2] (first compound 0.4 µM); 0.366 in assay [2] (first compound 1.265 µM); 0.41 in assay [2] (first compound 4 µM); 1.22 with Mirin + Bortezomib (first compound 0.25 µM); 1.25 with Mirin + Bortezomib (first compound 0.7906 µM). For the same cell line, the relative viability was determined as 1.07 with Mirin + Bortezomib (first compound 2.5 µM); 1.18 in the assay with Mirin + Bortezomib (first compound 7.906 µM); 1.2 with Mirin + Bortezomib (first compound 25 µM); 0.761 in assay [3] (first compound 0.04 µM); 0.729 in assay [3] (first compound 0.1265 µM); 0.881 in assay [3] (first compound 0.4 µM). The relative viability in assay [3] (first compound 1.265 µM) is 0.913; in assay [3] (first compound 4 µM) it was 0.982.
Regarding SK-LU-1, the relative viability in assay [1] (first compound 0.04 µM) was 0.157; in assay [1] (first compound 0.1265 µM), 0.15; in assay [1] (first compound 0.4 µM), 0.103; in assay [1] (first compound 1.265 µM), 0.139; in assay [1] (first compound 4 µM), 0.128; in assay [2] (first compound 0.04 µM) it was 0.523. For the same cell line, the relative viability amounted to 0.534 in assay [2] (first compound 0.1265 µM); 0.509 in assay [2] (first compound 0.4 µM); 0.385 in assay [2] (first compound 1.265 µM); 0.579 in assay [2] (first compound 4 µM); 1.22 in the assay with Mirin + Bortezomib (first compound 0.25 µM); 1.22 in the assay with Mirin + Bortezomib (first compound 0.7906 µM). Moreover, the relative viability in the assay with Mirin + Bortezomib (first compound 2.5 µM) turned out to be 1.19; with Mirin + Bortezomib (first compound 25 µM), 1.15; in assay [3] (first compound 0.04 µM), 1; in assay [3] (first compound 0.1265 µM), 1.1; in assay [3] (first compound 0.4 µM) it was 0.99; in assay [3] (first compound 1.265 µM) it was 1.06. Further, in assay [3] (first compound 4 µM), the relative viability was 1.02.
SW 1573: the relative viability is 0.597 in assay [1] (first compound 0.04 µM); 0.319 in assay [1] (first compound 0.1265 µM); 0.21 in assay [1] (first compound 0.4 µM); 0.246 in assay [1] (first compound 1.265 µM); 0.166 in assay [1] (first compound 4 µM); 0.405 in assay [2] (first compound 0.04 µM). In addition, the relative viability amounted to 0.415 in assay [2] (first compound 0.1265 µM); 0.3 in assay [2] (first compound 0.4 µM); 0.406 in assay [2] (first compound 1.265 µM); 0.357 in assay [2] (first compound 4 µM); 1.01 in the assay with Mirin + Bortezomib (first compound 0.25 µM); 1.06 with Mirin + Bortezomib (first compound 0.7906 µM). Further, the relative viability was 1.14 with Mirin + Bortezomib (first compound 2.5 µM); 0.95 with Mirin + Bortezomib (first compound 7.906 µM); 0.855 with Mirin + Bortezomib (first compound 25 µM); 0.81 in assay [3] (first compound 0.04 µM); 0.833 in assay [3] (first compound 0.1265 µM); 0.968 in assay [3] (first compound 0.4 µM). The figures for the relative viability in assay [3] (first compound 1.265 µM) and in assay [3] (first compound 4 µM) were 0.834 and 0.922, respectively.
